Patent publication EP0684822B1, “CARBOCYCLIC DEOXYGUANOSINE ANALOGS FOR THE TREATMENT OF VIRAL INFECTIONS” (SOUTHERN RESEARCH INSTITUTE, priority 1993, dated 1994)
In brackets after ≈: the same amount, converted by molar mass. Several values for one entry are separate records, joined by “and”; a condition that tells them apart may be missing. Identical values can stand only once.

Assays:
HSV-TK extract = molecular target: T1, HSV-TK extract (Human herpesvirus 1, UniProt P0DTH5); assay: Phosphorylated products formed by HSV-TK extract, SAX HPLC; type: biochemical, HSV-1
T1 construct: HSV thymidine kinase (HSV TK) was isolated from HELA (BU25) cells infected with the SW148 strain of HSV-1; made in house; host or cells: HeLa (BU25) thymidine-kinase-deficient cells infected with HSV-1 strain S148/SW148
T1 sequence (P0DTH5 whole entry): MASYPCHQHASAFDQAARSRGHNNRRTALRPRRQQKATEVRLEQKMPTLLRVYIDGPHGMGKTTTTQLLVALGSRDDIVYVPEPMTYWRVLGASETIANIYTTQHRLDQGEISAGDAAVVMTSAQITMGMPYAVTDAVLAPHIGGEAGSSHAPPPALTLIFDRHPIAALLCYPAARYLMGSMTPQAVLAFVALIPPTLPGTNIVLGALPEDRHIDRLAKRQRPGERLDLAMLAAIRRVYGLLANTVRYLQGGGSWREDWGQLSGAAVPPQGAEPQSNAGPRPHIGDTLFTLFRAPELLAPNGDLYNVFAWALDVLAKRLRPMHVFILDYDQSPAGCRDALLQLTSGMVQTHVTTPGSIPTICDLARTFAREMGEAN
Experimental: HSV thymidine kinase activity was measured in 200 µl volumes containing HSV-TK extract obtained as described previously (Belzarini et al., supra), 5.0 mM ATP, 5 mM MgCl2, 9 mM potassium fluoride, 11.2 µg phosphoenol pyruvate, 5 µg of pyruvate kinase, 10 mM β-mercaptoethanol and either 50 µM [3H]-D-, L, or no drug for 60 minutes at 37°C. The reaction was stopped with perchloric acid (PCA), neutralized with potassium bicarbonate, and the reaction products were analyzed by SAX HPLC. The UV absorption spectra of selected peaks were determined with a rapid spectral detector (LKB, Gaithersburg, MD). […] The amount of monophosphate derived from L-2'CdG was about the same as the amount of triphosphate derived from D-2'CdG, and confirmed the results of the disk assay.
HSV extracts were also incubated with 10 µM of either [^3H]-D- or L-2'Cdg, as described above, to measure the metabolism of these entantiomers. After 2 hours the reaction was stopped with perchloric acid (PCA), neutralized with potassium bicarbonate, and the acid-soluble metabolites were separated using SAX HPLC as described above. The results are summarized below.: TABLE 3

[1] = tested on: H.Ep.-2 cells infected with HSV-1; assay: Metabolism in HSV-1-infected H.Ep.-2 cells, SAX HPLC; type: cell-based, human; settings: H.Ep.-2 cells infected with HSV-1, 8 hours, Fig. 4
Experimental: The in vivo metabolism of D- and L-2'CdG was also measured in HSV-[TK+]-infected, HSV-[TK-]-infected and mock infected H.Ep.-2 cells (human epidermal carcinoma cells, ATCC CCL23). Uninfected and infected cells were incubated in fresh medium containing 2 µCi/ml of either [^3H]-D- or L-2'CdG, as described above, to measure the metabolism of these enantiomers. After 8 hours the cells were harvested and washed free of medium with PBS, and extracts were prepared with cold 0.5 N perchloric acid for 0.5 hr. The extract was then neutralized with potassium bicarbonate and the resulting precipitate was removed by centrifugation. The supernatant was lyophilized to dryness and the acid-soluble metabolites were separated using SAX HPLC as described above.
While these findings are similar to those obtained with the isolated viral kinase, they differ from the resulted with the isolated enzyme in that relatively more di- and triphosphate were formed from L-2'CdG.

HSV-1 (strain 377, TK+) = assay: Antiviral activity against HSV-1; type: cell-based; settings: HSV-1, range of tests
Experimental: D-2'-CdG and L-2'-CdG were tested, alongside D,L-2'-CdG, against both HSV-1 (strain 377, TK+; obtained from Dr. Earl Kern, University of Alabama) and HSV-2 (strain MS, TK+; also obtained from Dr. Earl Kern). In these tests (Table 5), Ara-A and acyclovir (ACV) were the positive control drugs. In four tests vs. HSV-1, the antiviral activity (VR) and potency (MIC50) of D-2'-CdG were approximately the same as those of racemic 2-CdG. L-2'-CdG was only modestly active.

HBV = HBV DNA production and replication in 2.2.15 cell cultures; type: cell-based, Hepatitis B virus (HBV); settings: for INTRACELLULAR HBV DNA INTEG. / INTRACELLULAR HBV DNA MONO. / INTRACELLULAR HBV DNA RI: 24 hours following 10th day of treatment; for HBV DNA IN CULTURE MEDIUM DAY 0: day 0 of treatment
Experimental: 2'-CdG was tested at three concentrations (50 ng/ml, 500 ng/ml, and 5 ug/ml) against the HBV-producing, human liver cell line, 2.2.15 (Sells et al., J. Virol. 62:2836, 1989). A racemic (D,L) preparation, as well as the purified D and L isomers were tested. For these analyses compounds were tested in duplicate at all concentrations. Ara-AMP and ddG (2'3'-dideoxyguanosine) were used as HBV inhibitory control compounds. […] The nucleoside analog, ddG was used as an additional control compound since ddG has activity against duck hepatitis B virus in chronically infected Peking ducks (Lee et al., Antimicrob. Agents Chemother. 33:336, 1989) and 2'-CdG is also a deoxyguanosine analog.
2.2.15 cells were seeded in 6 well culture plates and grown to confluence over a 10 day period in medium with 5% FBS. Test compounds were then added daily for a continuous 10 day period in medium with 1% dialyzed FBS. […] Compounds were tested, in duplicate cultures, at 3 concentrations covering a 100-fold range. Culture medium (changed daily during the treatment period) was collected and stored for analysis of extracellular (virion) HBV DNA from days 0, 3, 6, and 10 of the treatment period. This allowed for an analysis of the level of HBV virion production during discrete 24 hour intervals and reduced the potential for the buildup of toxic metabolites derived from the test compounds. Treated cells were lysed following the 10th day of treatment for the analysis of intracellular HBV genomic forms. HBV DNA was analyzed in a quantitative manner for (i) overall levels (both extracellular and intracellular DNA) and (ii) the relative rate of HBV replication (intracellular DNA only).
HBV DNA levels were measured by comparison to known amounts of HBV DNA standards applied to every nitrocellulose filter (gel or slot blot) using an AMBIS Beta Scanner. Standard curves, generated by multiple analyses, were used to correlate CPM measurements with relative levels of target HBV DNA. The levels of HBV DNA in each of three classes of intracellular viral genomic forms were individually quantitated: integrated HBV DNA, episomal monomeric genomes and HBV DNA replication intermediates (RI). Integrated HBV DNA was used to normalize the relative amounts of DNA in each lane because the levels of this class of HBV DNA would be expected to remain constant on a per cell basis. The levels of the monomeric HBV genomes and RI were used as an indicator of the relative level of HBV replication.

With `Nc1nc2c(ncn2[C@H]2C[C@@H](CO)[C@H](O)C2)c(=O)[nH]1` [L-2'-CdG, [1S,3R,4S-(1α,3β,4α)]-L-2-Amino-1,9-dihydro-9-[3-hydroxy-4-(hydroxymethyl)cyclopentyl]-6H-purin-6-one] the DPM di (HSV-TK extract; 10 µM [3H] compound, 2 hours) was 2050 DPM, the DPM mono (HSV-TK extract; 10 µM [3H] compound, 2 hours) was 115000 DPM and the DPM nucleoside (HSV-TK extract; 10 µM [3H] compound, 2 hours) was 40944 DPM. The DPM total (HSV-TK extract; 10 µM [3H] compound, 2 hours) was 158000 DPM, the DPM tri (HSV-TK extract; 10 µM [3H] compound, 2 hours) was 410 DPM and the major phosphorylated derivative (HSV-TK extract; 50 µM, 60 minutes at 37°C, Fig. 3) was “primarily to the monophosphate form”. The principal soluble metabolite [1] was “the monophosphate”, the VR (HSV-1 (strain 377, TK+)) was 0.8-2.4 and the EC50 (HSV-1 (strain 377, TK+); Human alphaherpesvirus 1, read-out: Mic50) was 39 to 257 mg/L (≈ 147 to 969 µM). The “anti-HBV activity (in words)” value (HBV; 50 ng/ml to 5 ug/ml, 2.2.15 cells) was “did not exhibit any significant anti-HBV activity”, the “INTRACELLULAR HBV DNA INTEG.” value (HBV; 50ng/ml, listed as L, 2-CdG) was 1.3 PG/UG CELL DNA and 0.8 PG/UG CELL DNA and the “INTRACELLULAR HBV DNA MONO.” value (HBV; 50ng/ml, listed as L, 2-CdG) was 1.4 PG/UG CELL DNA and 1.1 PG/UG CELL DNA. The “INTRACELLULAR HBV DNA RI” value (HBV; 50ng/ml, listed as L, 2-CdG) was 90 PG/UG CELL DNA and 76 PG/UG CELL DNA, the “HBV DNA IN CULTURE MEDIUM DAY 0” value (HBV; 50ng/ml, listed as L, 2-CdG) was 48 pg/mL and 67 pg/mL and the “HBV DNA IN CULTURE MEDIUM DAY 3” value (HBV; 50ng/ml, listed as L, 2-CdG) was 47 pg/mL and 83 pg/mL. For the same compound, the “HBV DNA IN CULTURE MEDIUM DAY 6” value (HBV; 50ng/ml, listed as L, 2-CdG) was 90 pg/mL and 63 pg/mL, the “HBV DNA IN CULTURE MEDIUM DAY 10” value (HBV; 50ng/ml, listed as L, 2-CdG) was 90 pg/mL and 61 pg/mL and the “INTRACELLULAR HBV DNA MONO.” value (HBV; 500ng/ml) was 1.9 PG/UG CELL DNA. For the same compound, the “INTRACELLULAR HBV DNA INTEG.” value (HBV; 500ng/ml, listed as L, 2-CdG) was 1.4 PG/UG CELL DNA and 1.5 PG/UG CELL DNA, the “INTRACELLULAR HBV DNA RI” value (HBV; 500ng/ml, listed as L, 2-CdG) was 82 PG/UG CELL DNA and 99 PG/UG CELL DNA and the “HBV DNA IN CULTURE MEDIUM DAY 0” value (HBV; 500ng/ml, listed as L, 2-CdG) was 90 pg/mL and 110 pg/mL. The “HBV DNA IN CULTURE MEDIUM DAY 3” value (HBV; 500ng/ml, listed as L, 2-CdG) was 63 pg/mL and 83 pg/mL, the “HBV DNA IN CULTURE MEDIUM DAY 6” value (HBV; 500ng/ml, listed as L, 2-CdG) was 78 pg/mL and 56 pg/mL and the “HBV DNA IN CULTURE MEDIUM DAY 10” value (HBV; 500ng/ml, listed as L, 2-CdG) was 97 pg/mL and 91 pg/mL. The “INTRACELLULAR HBV DNA INTEG.” value (HBV; 5 ug/ml, listed as L, 2-CdG) was 1.5 PG/UG CELL DNA and 0.9 PG/UG CELL DNA, the “INTRACELLULAR HBV DNA MONO.” value (HBV; 5 ug/ml, listed as L, 2-CdG) was 2.0 PG/UG CELL DNA and 1.1 PG/UG CELL DNA and the “INTRACELLULAR HBV DNA RI” value (HBV; 5 ug/ml, listed as L, 2-CdG) was 97 PG/UG CELL DNA and 86 PG/UG CELL DNA. For the same compound, the “HBV DNA IN CULTURE MEDIUM DAY 0” value (HBV; 5 ug/ml, listed as L, 2-CdG) was 50 pg/mL and 88 pg/mL, the “HBV DNA IN CULTURE MEDIUM DAY 3” value (HBV; 5 ug/ml, listed as L, 2-CdG) was 67 pg/mL and 110 pg/mL and the “HBV DNA IN CULTURE MEDIUM DAY 6” value (HBV; 5 ug/ml, listed as L, 2-CdG) was 77 pg/mL and 120 pg/mL. For the same compound, the “HBV DNA IN CULTURE MEDIUM DAY 10” value (HBV; 5 ug/ml, listed as L, 2-CdG) was 90 pg/mL and 120 pg/mL.
